Reference: patent US7256198B2, “Pyrimidoindolones and methods for using same” (Wyeth, priority 2004, dated 2007)
Structures can show the parent of a compound that is named as a salt.

Legend:
[1] = target: T1, recombinant caspase 3 (Homo sapiens, UniProt P42574); experiment: Caspase 3 Inhibition Assay (Ac-DEVD-AFC fluorogenic substrate cleavage); type: biochemical; details: pH 7.2, 23° C.; for IC50: recombinant caspase 3 0.25 nM, Ac-DEVD-AFC 25 μM; for inhibition at 50 µM: @ 50 μM compound, recombinant caspase 3, Ac-DEVD-AFC 25 μM, read-out: percent inhibition at the highest compound concentration
T1 construct: His tag (C); made in house; host or cells: E. coli
T1 sequence (P42574 29-175 limits assumed): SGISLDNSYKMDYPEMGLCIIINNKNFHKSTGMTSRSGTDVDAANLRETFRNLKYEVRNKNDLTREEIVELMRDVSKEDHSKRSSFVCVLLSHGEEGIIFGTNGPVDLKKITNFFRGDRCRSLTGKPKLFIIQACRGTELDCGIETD
T1 sequence (P42574 176-277 limits assumed): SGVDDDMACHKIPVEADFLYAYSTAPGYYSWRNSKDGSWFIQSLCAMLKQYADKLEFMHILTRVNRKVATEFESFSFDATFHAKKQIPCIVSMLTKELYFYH
Description: Caspase 3 was expressed intracellularly in E. coli with a c-terminal His tag. Fermentation was performed at 25° C. in a B. Braun Biotech Biostat C 10 liter bioreactor vessel. The culture was collected in IL bottles and centrifuged in Komspin KA-7.1000 rotors at approximately 8000 RCF (Relative Centrifugal Force). The cell pellets were re-suspended in 20 mM Tris pH 8.0, 500 mM NaCl, and 5 mM imidazole. The cell suspension was disrupted by passing 5 times through a microfluidizer Model 110Y (Microfluidics Corp, Newton, Mass). After centrifugation (13 kg, 30 min at 4 C), the supernatant was applied to a column of Nickle-NTA agarose. The Caspase 3 was eluted with a gradient of 5 mM to 150 mM imidazole in the above buffer. Fractions containing Caspase 3 were pooled and concentrated with a Millipore Ultrafree filtration device. The concentrated Caspase 3 solution was loaded unto a TSK gel G3000sw column (Tosoh Bioseph LLC), equilibrated with a buffer of 20 mM PIPES pH 7.2, 100 mM NaCl, 1 mM EDTA & 5 mM Cysteine. Fractions containing Caspase 3 were pooled and concentrated. Sometimes CHAPS was added to 0.1% and sucrose to 10% into the protein sample.
Caspase 3 was assayed at 23° C. (room temp) in 96-well plates using the internally quenched tetrapeptide substrate N-acetyl-aspartyl-glutamyl-valyl-aspartate-7-amino-4-trifluoromethyl coumarin (Ac-DEVD-AFC purchased from Biomol). The assays are conducted at pH 7.2 in a buffered system containing 20 mM PIPES, 100 mM NaCl, 1 mM EDTA, 0.1% CHAPS, 10% sucrose and 5 mM L-cysteine. […] A steady state rate of substrate cleavage is obtained for analysis.
The progress curves generated were fitted by computer to equation 1 to generate an IC50 value. Equation 1: y=Bmax*(1−(x^n/(K^n+x^n))), where Bmax is rate in the absence of inhibitor.

SMILES	melting point	IC50 [1] [nM]	inhibition at 50 µM [1] [%]
COC[C@@H]1CCCN1S(=O)(=O)c1ccc2c(c1)C(=O)C1=NCC(C)(C)CN12	163 to 165 °C		
CC1(C)CN=C2C(=O)c3cc(S(=O)(=O)N4CCC[C@H]4COc4ccccc4)ccc3N2C1	73 to 88 °C (dec.)		
COC[C@H]1CCCN1S(=O)(=O)c1ccc2c(c1)C(=O)C1=NCC(C)(C)CN12	161 to 164 °C		
COC[C@@H]1CCCN1S(=O)(=O)c1ccc2c(c1)C(=O)C1=NCC3(CCCC3)CN12	171.2 to 171.9 °C		
O=C(Nc1ccc2c(c1)C(=O)C1=NCCCN12)c1ccccc1 (as salt: trifluoroacetic acid salt) [Example 17, N-(10-Oxo-2,3,4,10-tetrahydropyrimido[1,2-a]indol-8-yl)benzamide trifluoroacetic acid salt]	155 to 168 °C		
COC[C@@H]1CCCN1S(=O)(=O)c1cc2c(cc1Cl)N1CCCN=C1C2=O (hydrate or solvate) [Example 5, 7-Chloro-8-{[(2S)-2-(methoxymethyl)pyrrolidin-1-yl-]sulfonyl}-3,4-dihydropyrimido[1,2-a]indol-10(2H)-one]	127 to 130 °C		
Cc1ccc2c(c1)C(=O)C1=NCCCN12 (hydrate or solvate) [Example 10, 8-Methyl-3,4-dihydropyrimido[1,2-a]indol-10(2H)-one]	163 to 164 °C		
COc1ccc2c(c1)C(=O)C1=NCCCN12 (hydrate or solvate) [Example 11, 8-Methoxy-3,4-dihydropyrimido[1,2-a]indol-10(2H)-one]	152 °C		
CC1(C)CN=C2C(=O)c3cc(Cl)ccc3N2C1 (hydrate or solvate) [Example 14, 8′-Chloro-3′,3′-dimethyl-3′,4′-dihydropyrimido[1,2-a]indol-10(2H)-one]	153 to 154 °C		
O=C1C2=NCCCN2c2cc(Cl)c([N+](=O)[O-])cc21 (hydrate or solvate) [Example 15, 7-Chloro-8-nitro-3,4-dihydropyrimido[1,2-a]indol-10(2H)-one]	152 to 165 °C		
CC1(C)CN=C2C(=O)c3cc(C#N)ccc3N2C1 (hydrate or solvate) [Example 20, 3,3-Dimethyl-10-oxo-2,3,4,10-tetrahydropyrimido[1,2-a]indole-8-carbonitrile]	178 to 184 °C		
COC[C@@H]1CCCN1S(=O)(=O)c1ccc2c(c1)C(=O)C1=NCCCN12 [Example 1, 8-{[(2S)-2-(Methoxymethyl)pyrrolidin-1-yl]sulfonyl}-3,4-dihydropyrimido[1,2-a]indol-10(2H)-one]	171 to 172 °C	27	
O=C1C2=NCCCN2c2ccc(S(=O)(=O)N3CCC[C@H]3COc3ccccc3)cc21 [Example 3]	159 to 160 °C		
CNS(=O)(=O)c1ccc2c(c1)C(=O)C1=NCCCN12 [Example 7, N-Methyl-10-oxo-2,3,4,10-tetrahydropyrimido[1,2-a]indole-8-sulfonamide]	170 to 183 °C (dec.)	1270	
CC1(C)CN=C2C(=O)c3cc(S(=O)(=O)N4CCC[C@H]4CO)ccc3N2C1 [Example 8, 8-{[(2S)-2-(Hydroxymethyl)pyrrolidin-1-yl]sulfonyl}-3,3-dimethyl-3,4-dihydropyrimido[1,2-a]indol-10(2H)-one]	91 to 96 °C (dec.)	25	
O=C1C2=NCCCN2c2ccc(Br)cc21 [Example 9, 8-Bromo-3,4-dihydropyrimido[1,2-a]indol-10(2H)-one]	166 to 168 °C (dec.)		72
CC1(C)CN=C2C(=O)c3cc(S(=O)(=O)N4CCCC4)ccc3N2C1 [Example 12, 3,3-Dimethyl-8-(pyrrolidin-1-ylsulfonyl)-3,4-dihydropyrimido[1,2-a]indol-10(2H)-one]	200 to 201 °C	9	
CC1CCN=C2C(=O)c3cc(Br)ccc3N21 (stereo not shown) [Example 13, 8-Bromo-4-methyl-3,4-dihydropyrimido[1,2-a]indol-10(2H)-one]	127 to 129 °C	50000	
Nc1cc2c(cc1Cl)N1CCCN=C1C2=O [Example 16, 8-Amino-7-chloro-3,4-dihydropyrimido[1,2-a]indol-10(2H)-one]	> 270 °C		
O=C1C2=NCCCN2c2ccc(F)cc21 [Example 18, 8-Fluoro-3,4-dihydropyrimido[1,2-a]indol-10(2H)-one]	150 to 152 °C		26
O=C1C2=NCCCN2c2ccc(O)cc21 [Example 19, 8-Hydroxy-3,4-dihydropyrimido[1,2-a]indol-10(2H)-one]	265 °C (dec.)		2
CC1(C)CN=C2C(=O)c3cc(S(=O)(=O)N4CCc5ccccc54)ccc3N2C1 [Example 32, 8-(2,3-Dihydro-1H-indol-1-ylsulfonyl)-3,3-dimethyl-3,4-dihydropyrimido[1,2-a}indol-10(2H)-one]	169.8 to 170.8 °C	16	
COC[C@@H]1Cc2ccccc2N1S(=O)(=O)c1ccc2c(c1)C(=O)C1=NCC(C)(C)CN12 [Example 33, 8-{[(2S)-2-(Methoxymethyl)-2,3-dihydro-1H-indol-1-yl]sulfonyl}-3,3-dimethyl-3,4-dihydropyrimido[1,2-a]indol-10(2H)-one]	173.4 to 175 °C	555	
CN1CCN(C(=O)c2ccc3c(c2)C(=O)C2=NCC(C)(C)CN23)CC1 [Example 81, 3,3-Dimethyl-8-[(4-methylpiperazin-1-yl)carbonyl]-3,4-dihydropyrimido[1,2-a]indol-10(2H)-one]			29
CC(=O)N1CCN(C(=O)c2ccc3c(c2)C(=O)C2=NCC(C)(C)CN23)CC1 [Example 82, 8-[(4-Acetylpiperazin-1-yl)carbonyl]-3,3-dimethyl-3,4-dihydropyrimido[1,2-a]indol-10(2H)-one]			28
O=C1C2=NCC3(CCCC3)CN2c2ccc(S(=O)(=O)N3CCC[C@H]3CN3CCOCC3)cc21 [Example 83, 8′-{[(2S)-2-(morpholin-4-ylmethyl)pyrrolidin-1-yl]sulfonyl}spiro[cyclopentane-1,3′-pyrimido[1,2-a]indol]-10′(2′H)-one]	162.9 to 163.6 °C	14	
CN1CCN(C[C@@H]2CCCN2S(=O)(=O)c2ccc3c(c2)C(=O)C2=NCC4(CCCC4)CN23)CC1 [Example 84, 8′-({(2S)-2-[(4-Methylpiperazin-1-yl)methyl]pyrrolidin-1-yl}sulfonyl)spiro[cyclopentane-1,3′-pyrimido[1,2-a]indol]-10′(2′H)-one]		30	
CC1CCN2C(=N1)C(=O)c1cc(S(=O)(=O)N3CCCC3)ccc12 (stereo not shown) [Example 87]	152.5 to 153 °C	15	
